Bridge positions count the residues as written; N and C are the ends. Square brackets hold non-standard residues; d marks the D form. Peptide text beside a SMILES is read from it. * marks the point of attachment. Threoninol(2S,3R) = C[C@@H](O)[C@H](CO)N*
Target: Multidrug resistance protein 1a (Rattus norvegicus) (UniProt Q6PSM0)
Test: TP_TRANSPORTER: uptake, inhibited by Verapamil, Vincristine and PSC833 in bile canalicular membrane vesicles from SD rat
Format: functional, cell membranes
Settings: Sprague-Dawley, Bile canalicular membrane vesicle

Chain of Multidrug resistance protein 1a (Rattus norvegicus) (Q6PSM0 as listed by the source): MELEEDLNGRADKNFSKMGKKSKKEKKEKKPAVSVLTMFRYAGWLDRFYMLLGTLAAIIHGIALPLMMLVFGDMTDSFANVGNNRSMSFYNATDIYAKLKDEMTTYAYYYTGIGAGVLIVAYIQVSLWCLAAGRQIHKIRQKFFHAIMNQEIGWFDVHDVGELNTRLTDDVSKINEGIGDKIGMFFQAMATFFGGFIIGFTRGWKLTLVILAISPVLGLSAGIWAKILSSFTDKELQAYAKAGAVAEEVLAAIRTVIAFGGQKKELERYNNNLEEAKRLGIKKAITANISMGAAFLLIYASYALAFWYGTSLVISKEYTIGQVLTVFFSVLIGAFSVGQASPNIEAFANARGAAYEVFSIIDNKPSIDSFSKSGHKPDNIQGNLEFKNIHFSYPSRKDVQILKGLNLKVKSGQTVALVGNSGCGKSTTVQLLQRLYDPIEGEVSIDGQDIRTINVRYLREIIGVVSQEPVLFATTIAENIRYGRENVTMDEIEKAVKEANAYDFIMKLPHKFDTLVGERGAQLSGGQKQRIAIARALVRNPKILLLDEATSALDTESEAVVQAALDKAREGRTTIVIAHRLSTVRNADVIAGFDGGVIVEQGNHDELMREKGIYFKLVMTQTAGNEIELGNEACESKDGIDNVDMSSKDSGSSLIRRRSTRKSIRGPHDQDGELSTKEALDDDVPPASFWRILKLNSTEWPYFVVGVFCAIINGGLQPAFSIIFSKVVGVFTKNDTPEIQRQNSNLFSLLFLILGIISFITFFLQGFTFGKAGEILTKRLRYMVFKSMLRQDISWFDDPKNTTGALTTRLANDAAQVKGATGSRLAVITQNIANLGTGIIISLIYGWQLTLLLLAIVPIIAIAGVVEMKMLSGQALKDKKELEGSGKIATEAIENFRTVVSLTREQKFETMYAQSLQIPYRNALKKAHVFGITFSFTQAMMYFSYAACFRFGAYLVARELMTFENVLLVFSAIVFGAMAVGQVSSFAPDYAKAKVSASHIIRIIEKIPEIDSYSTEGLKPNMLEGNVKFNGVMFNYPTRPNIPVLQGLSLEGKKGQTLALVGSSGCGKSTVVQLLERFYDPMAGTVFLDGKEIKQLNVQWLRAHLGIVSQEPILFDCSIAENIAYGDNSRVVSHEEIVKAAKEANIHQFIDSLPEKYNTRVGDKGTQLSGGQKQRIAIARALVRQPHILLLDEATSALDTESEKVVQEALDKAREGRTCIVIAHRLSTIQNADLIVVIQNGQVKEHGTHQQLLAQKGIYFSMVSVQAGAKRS

With `C[C@@H](O)[C@H](CO)NC(=O)[C@@H]1CSSC[C@H](NC(=O)[C@H](N)Cc2ccccc2)C(=O)N[C@@H](Cc2ccccc2)C(=O)N[C@H](Cc2c[nH]c3ccccc23)C(=O)N[C@@H](CCCCN)C(=O)N[C@@H]([C@@H](C)O)C(=O)N1` (H-[dF]CF[dW]KTC-{Threoninol(2S,3R)}; disulfide 2-7) the Activity was “substrate [+]”.

From ChEMBL document CHEMBL2074329, “Characterization of the transport of a cationic octapeptide, octreotide, in rat bile canalicular membrane: possible involvement of P-glycoprotein” (Biol Pharm Bull, 1998)
